What was measured:
[1] = Dynamic surface tension of aqueous solutions, maximum bubble pressure method; type: physicochemical; details: for γ at 0.1 wt %, 0.1 b/s / γ at 0.1 wt %, 1 b/s / γ at 0.1 wt %, 6 b/s / γ at 0.1 wt %, 20 b/s: 0.1 wt % in distilled water; for γ limiting, 0.1 b/s / γ limiting, 1 b/s / γ limiting, 6 b/s / γ limiting, 20 b/s: saturated solution made using 1.0 wt % in water
From the text: Dynamic surface tension data were obtained for the soluble portion of these samples using the maximum bubble pressure method at bubble rates from 0.1 bubbles/sec (b/s) to 20 b/s.
The relative efficiency of surface tension reduction can be obtained by comparing surface tension reduction of solutions containing the same amount of different surfactants. Such data are given for 0.1 wt % solutions of the foam control agents at 0.1, 1, 6 and 20 bubbles/second (b/s). The limiting surface tensions at 0.1, 1, 6 and 20 b/s represent the lowest surface tensions in water which can be achieved at the given surface creation rates for a given surfactant regardless of the amount of surfactant used and is used to evaluate the effectiveness of a surfactant. In most cases the limiting surface tension was taken at 1.0 wt % since the foam control agent was insoluble at this concentration. In the case where the foam control agent was soluble at 1.0 wt %, the limiting surface tension was taken at 5.0 wt % (where the samples were insoluble). These values give information about the relative ability to a surfactant to reduce surface defects under near-equilibrium conditions (0.1 b/s) through very dynamic conditions (20 b/s).

[2] = Foam test of DOSS solutions with added foam control agent (based on ASTM D 1173-53); type: physicochemical; details: 0.1 wt % foam control agent added to 0.1 wt % DOSS in water; for Initial foam height: ambient temperature
From the text: Dioctyl sodium sulfosuccinate (DOSS) is a commonly used surfactant in waterborne compositions. DOSS is capable of forming stable foams when dissolved in water. The foam control characteristics of various foam control agents may be assessed by measuring the foam generated by a 0.1 wt % aqueous solution of DOSS and comparing this to the foam generated after the addition of foam control agent to a 0.1 wt % DOSS solution. The DOSS utilized in these measurements was an Aerosol OT 75% surfactant obtained from Cytec Industries. The foaming and foam stability of DOSS were measured using a procedure based upon ASTM D 1173-53 at ambient temperature, typically 23° C.
In these tests, an aqueous solution of DOSS or the filtrate from the DOSS/foam control agent mixture is added from an elevated foam pipette to a foam receiver containing the same solution. The foam height is measured at the completion of the addition (“Initial Foam Height”) and the time required for the foam to dissipate at the air-liquid interface (“Time to 0 Foam”) is recorded. This test provides a comparison between the foaming characteristics of various aqueous compositions. The results for the foam control agents prepared in Examples 1-28 are reported in Table 1 along with comparative data for a 0.1 wt % solution of DOSS with no added foam control agent (Example 29).

Structure (SMILES)	γ at 0.1 wt %, 0.1 b/s [1] [dyne/cm]	γ at 0.1 wt %, 1 b/s [1] [dyne/cm]	γ at 0.1 wt %, 6 b/s [1] [dyne/cm]	γ at 0.1 wt %, 20 b/s [1] [dyne/cm]	γ limiting, 0.1 b/s [1] [dyne/cm]	γ limiting, 1 b/s [1] [dyne/cm]	γ limiting, 6 b/s [1] [dyne/cm]	γ limiting, 20 b/s [1] [dyne/cm]	Foam height after 1 min [2] [cm]	Foam height after 10 min [2] [cm]	Initial foam height [2] [cm]
CCCCOCC(O)CN(CCCOCCOCCOCCCN(CC(O)COCCCC)CC(O)COCCCC)CC(O)COCCCC (stereo not drawn) [DAPDEG/4 BGE]	37.4	38.9	42.0	50.7	34.2	34.5	35.5	39.1	1.2	0.2	2.3
CCCCOCC(O)CN(CCN(CC(O)COCCCC)CC(O)COCCCC)CC(O)COCCCC (stereo not drawn) [EDA/4 BGE]	36.7	38.9	44.4	58.4	35.9	37.0	39.2	43.0	1.3	1.2	1.9
CCCCC(CC)COCC(O)CN(CCN(CC(O)COCC(CC)CCCC)CC(O)COCC(CC)CCCC)CC(O)COCC(CC)CCCC (stereo not drawn) [EDA/4 EHGE]	60.7	67.9	71.0	71.7	44.4	50.6	51.0	52.1	2.5	2.1	3.0
CC(C)COCC(O)CN(CCN(CC(O)COCC(C)C)CC(O)COCC(C)C)CC(O)COCC(C)C (stereo not drawn) [EDA/4 IBGE]	37.6	41.7	51.4	65.5	34.8	36.7	40.3	49.4	1.5	1.2	2.0
CCCCOCC(O)CNCCCCCCN(CC(O)COCCCC)CC(O)COCCCC (stereo not drawn) [HDA/3 BGE]	40.3	43.1	47.5	55.4	37.9	39.1	40.7	44.4	0	0	1.2
CCCCOCC(O)CN(CCCC(C)CN(CC(O)COCCCC)CC(O)COCCCC)CC(O)COCCCC (stereo not drawn) [MPD/4 BGE]	42.8	55.7	67.5	67.7	35.3	36.4	38.9	41.5	1.5	0.5	2.5
CCCCOCC(O)CN(CC(O)COCCCC)C1CCC(CC2CCC(N(CC(O)COCCCC)CC(O)COCCCC)CC2)CC1 (stereo not drawn) [PACM/4 BGE]	70.6	71.8	72.0	72.4	58.5	68.5	70.5	71.0	2.1	1.8	2.7

Second part, led by results:

γ at 0.1 wt %, 0.1 b/s [1] [dyne/cm]	γ at 0.1 wt %, 1 b/s [1] [dyne/cm]	γ at 0.1 wt %, 6 b/s [1] [dyne/cm]	γ at 0.1 wt %, 20 b/s [1] [dyne/cm]	γ limiting, 0.1 b/s [1] [dyne/cm]	γ limiting, 1 b/s [1] [dyne/cm]	γ limiting, 6 b/s [1] [dyne/cm]	γ limiting, 20 b/s [1] [dyne/cm]	Structure (SMILES)	Foam height after 1 min [2] [cm]	Foam height after 10 min [2] [cm]	Initial foam height [2] [cm]
37.6	39.6	43.2	51.3	34.9	35.6	36.5	38.3	CCCCOCC(O)CNCCN(CC(O)COCCCC)CC(O)COCCCC (stereo not drawn) [EDA/3 BGE]	1.4	1.2	2.0
45.3	58.7	70.5	70.9	33.5	36.0	47.1	48.7	CCCCC(CC)COCC(O)CNCCN(CC(O)COCC(CC)CCCC)CC(O)COCC(CC)CCCC (stereo not drawn) [EDA/3 EHGE]	1.5	1.2	2.1
38.9	42.5	44.1	50.3	33.3	34.3	35.0	35.6	CC(C)COCC(O)CNCCN(CC(O)COCC(C)C)CC(O)COCC(C)C (stereo not drawn) [EDA/3 IBGE]	0.8	0.7	0.9
42.9	55.9	67.6	70.8	37.3	39.0	40.8	41.9	CCCCOCC(O)CN(CCCCCCN(CC(O)COCCCC)CC(O)COCCCC)CC(O)COCCCC (stereo not drawn) [HDA/4 BGE]	1.3	1.2	1.5
50.2	59.2	69.1	71.8	47.9	54.0	63.5	65.8	CCCCOCC(O)CNC1CCC(CC2CCC(N(CC(O)COCCCC)CC(O)COCCCC)CC2)CC1 (stereo not drawn) [PACM/3 BGE]	2.8	1.5	2.5

Reference: patent publication US6746623B2, “Alkyl glycidyl ether-capped diamine foam controlling agent” (Air Products and Chemicals, Inc., priority 2002, dated 2004)
